Values after ≈ are worked out from the molar mass of the structure shown.
Key:
Klebsiella pneumoniae = experiment: microbe, parasite or virus in culture; settings: ATCC 700603, 18 h, ASSAY_TEST Inhibition of Bacterial Growth, detection method Absorption (OD600), MEDIA CAMHB, plate type 384well, NBS, CORNING #3640
Description: Antibacterial activity against Klebsiella pneumoniae MDR ATCC 70063 (CO-ADD:GN_003); MIC in CAMBH media using NBS plates, by OD(600)

Staphylococcus aureus = experiment: microbe, parasite or virus in culture; settings: ATCC 43300, 18 h, ASSAY_TEST Inhibition of Bacterial Growth, detection method Absorption (OD600), MEDIA CAMHB, plate type 384well, NBS, CORNING #3640
Description: Antibacterial activity against Staphylococcus aureus MRSA ATCC 43300 (CO-ADD:GP_020); MIC in CAMBH media, using NBS plates, by OD(600)

Acinetobacter baumannii = experiment: microbe, parasite or virus in culture; settings: ATCC 19606, 18 h, ASSAY_TEST Inhibition of Bacterial Growth, detection method Absorption (OD600), MEDIA CAMHB, plate type 384well, NBS, CORNING #3640
Description: Antibacterial activity against Acinetobacter baumannii ATCC 19606 (CO-ADD:GN_034); MIC in CAMBH media using NBS plates, by OD600

HEK293 = experiment: cells; assay type: functional; settings: Homo sapiens, ATCC CRL1573, HEK293; ASSAY_TEST Inhibition of Cell Viability; detection method Resazurin; Fluorescence (ex560/em590); MEDIA DMEM with 10% FBS; plate type 384well; TC; CORNING #3712; time 18 hr
Pseudomonas aeruginosa = experiment: microbe, parasite or virus in culture; settings: ATCC 27853, 18 h, ASSAY_TEST Inhibition of Bacterial Growth, detection method Absorption (OD600), MEDIA CAMHB, plate type 384well, NBS, CORNING #3640
Description: Antibacterial activity against Pseudomonas aeruginosa ATCC 27853 (CO-ADD:GN_042); MIC in CAMBH media using NBS plates, by OD(600)

Candida albicans = experiment: microbe, parasite or virus in culture; settings: ATCC 90028, ASSAY_TEST Inhibition of Fungal Growth, detection method Absorption (OD530), plate type 384well, NBS, CORNING #3640
Description: Antifungal activity against Candida albicans ATCC 90028 (CO-ADD:FG_001); MIC in YNB media using NBS plates, by OD630

Escherichia coli = experiment: microbe, parasite or virus in culture; settings: ATCC 25922, 18 h, ASSAY_TEST Inhibition of Bacterial Growth, detection method Absorption (OD600), MEDIA CAMHB, plate type 384well, NBS, CORNING #3640
Description: Antibacterial activity against Escherichia coli ATCC 25922 (CO-ADD:GN_001); MIC in CAMBH media using NBS plates, by OD(600)

Description for Cryptococcus neoformans: Antifungal activity against Cryptococcus neoformans H99 ATCC 208821 (CO-ADD:FG_002); MIC in YNB media using NBS plates, by Resazurin OD(600-570)

CCOC(=O)NC(=O)c1ccsc1NC(=O)c1nc2ccccc2s1
MIC (Klebsiella pneumoniae): > 10 µM
MIC (Staphylococcus aureus): > 10 µM
MIC (Acinetobacter baumannii): > 10 µM
CC50 (HEK293): > 10 µM
MIC (Pseudomonas aeruginosa): > 10 µM
MIC (Candida albicans): > 10 µM
MIC (Escherichia coli): > 10 µM
MIC (Cryptococcus neoformans): > 10 µM

CC(=O)N1CCN(c2ccc(Oc3ccc(Cl)cc3O)cc2)CC1
MIC (Klebsiella pneumoniae): > 10 µM
MIC (Staphylococcus aureus): > 10 µM
MIC (Acinetobacter baumannii): > 10 µM
CC50 (HEK293): > 10 µM
MIC (Pseudomonas aeruginosa): > 10 µM
MIC (Candida albicans): > 10 µM
MIC (Escherichia coli): > 10 µM
MIC (Cryptococcus neoformans): > 10 µM

Clc1cccc(C(c2ccc(CN3CCNCC3)cc2)n2ccnc2)c1 (centres undefined)
MIC (Klebsiella pneumoniae): > 10 µM
MIC (Staphylococcus aureus): > 10 µM
MIC (Acinetobacter baumannii): > 10 µM
CC50 (HEK293): > 10 µM
MIC (Pseudomonas aeruginosa): > 10 µM
MIC (Candida albicans): > 10 µM
MIC (Escherichia coli): > 10 µM
MIC (Cryptococcus neoformans): > 10 µM

Nc1ccc2ncnc(Nc3ccc(OCc4cccc(F)c4)c(Cl)c3)c2c1
MIC (Klebsiella pneumoniae): > 10 µM
MIC (Staphylococcus aureus): > 10 µM
MIC (Acinetobacter baumannii): > 10 µM
CC50 (HEK293): > 10 µM
MIC (Pseudomonas aeruginosa): > 10 µM
MIC (Candida albicans): > 10 µM
MIC (Escherichia coli): > 10 µM
MIC (Cryptococcus neoformans): > 10 µM

NCCN(C(=O)c1ccc(Cl)cc1Cl)c1ccc(OCc2ccc(Cl)cc2)cc1
MIC (Klebsiella pneumoniae): > 10 µM
MIC (Staphylococcus aureus): 10 µM (≈ 4.5 µg/mL)
MIC (Acinetobacter baumannii): > 10 µM
CC50 (HEK293): > 10 µM
MIC (Pseudomonas aeruginosa): > 10 µM
MIC (Candida albicans): > 10 µM
MIC (Escherichia coli): > 10 µM
MIC (Cryptococcus neoformans): > 10 µM

O=C1O[C@@H](CO)CN1c1cc(F)c(C2=CCN(Cc3ccccc3)CC2)c(F)c1
MIC (Klebsiella pneumoniae): > 10 µM
MIC (Staphylococcus aureus): > 10 µM
MIC (Acinetobacter baumannii): > 10 µM
CC50 (HEK293): > 10 µM
MIC (Pseudomonas aeruginosa): > 10 µM
MIC (Candida albicans): > 10 µM
MIC (Escherichia coli): > 10 µM
MIC (Cryptococcus neoformans): > 10 µM

CC1COC(Cn2cncn2)(c2ccc(Oc3ccc(Cl)cc3)cc2Cl)O1 (centres undefined) [DIFENOCONAZOLE]
MIC (Klebsiella pneumoniae): > 10 µM
MIC (Staphylococcus aureus): > 10 µM
MIC (Acinetobacter baumannii): > 10 µM
CC50 (HEK293): > 10 µM
MIC (Pseudomonas aeruginosa): > 10 µM
MIC (Candida albicans): 0.625 µM (≈ 0.254 µg/mL)
MIC (Escherichia coli): > 10 µM
MIC (Cryptococcus neoformans): 0.625 µM (≈ 0.254 µg/mL)

Cn1c(=O)c2c(S(C)(=O)=O)snc2n(C)c1=O
MIC (Klebsiella pneumoniae): > 10 µM
MIC (Staphylococcus aureus): > 10 µM
MIC (Acinetobacter baumannii): > 10 µM
CC50 (HEK293): 9.72 µM
MIC (Pseudomonas aeruginosa): > 10 µM
MIC (Candida albicans): > 10 µM
MIC (Escherichia coli): > 10 µM
MIC (Cryptococcus neoformans): > 10 µM

CC(=O)NCC1CN(c2ccc(-c3ccc(CO)cc3)c(F)c2)C(=O)O1 (centres undefined)
MIC (Klebsiella pneumoniae): > 10 µM
MIC (Staphylococcus aureus): 1.25 µM (≈ 0.448 µg/mL)
MIC (Acinetobacter baumannii): > 10 µM
CC50 (HEK293): > 10 µM
MIC (Pseudomonas aeruginosa): > 10 µM
MIC (Candida albicans): > 10 µM
MIC (Escherichia coli): > 10 µM
MIC (Cryptococcus neoformans): > 10 µM

O=C(Nc1ccc(N2CCNCC2)cc1)c1ccn2ncc(-c3cccc(Cl)c3)c2n1
MIC (Klebsiella pneumoniae): > 10 µM
MIC (Staphylococcus aureus): > 10 µM
MIC (Acinetobacter baumannii): > 10 µM
CC50 (HEK293): 9.02 µM
MIC (Pseudomonas aeruginosa): > 10 µM
MIC (Candida albicans): > 10 µM
MIC (Escherichia coli): > 10 µM
MIC (Cryptococcus neoformans): > 10 µM

N=C(N)c1ccc(OCCCCCOc2ccc(C(=N)N)cc2)cc1 [PENTAMIDINE ISETHIONATE]
MIC (Klebsiella pneumoniae): > 10 µM
MIC (Staphylococcus aureus): > 10 µM
MIC (Acinetobacter baumannii): > 10 µM
CC50 (HEK293): > 10 µM
MIC (Pseudomonas aeruginosa): > 10 µM
MIC (Candida albicans): 0.312 µM
MIC (Escherichia coli): > 10 µM
MIC (Cryptococcus neoformans): > 10 µM

Nc1nc2cc(-c3cncc(Oc4ccc(F)cc4)c3)ccc2[nH]1
MIC (Klebsiella pneumoniae): > 10 µM
MIC (Staphylococcus aureus): > 10 µM
MIC (Acinetobacter baumannii): > 10 µM
CC50 (HEK293): > 10 µM
MIC (Pseudomonas aeruginosa): > 10 µM
MIC (Candida albicans): > 10 µM
MIC (Escherichia coli): > 10 µM
MIC (Cryptococcus neoformans): > 10 µM

CCc1nn(C)c(C(=O)NCc2ccc(Oc3ccc(C)cc3)cc2)c1Cl [TOLFENPYRAD]
MIC (Klebsiella pneumoniae): > 10 µM
MIC (Staphylococcus aureus): > 10 µM
MIC (Acinetobacter baumannii): > 10 µM
CC50 (HEK293): > 10 µM
MIC (Pseudomonas aeruginosa): > 10 µM
MIC (Candida albicans): > 10 µM
MIC (Escherichia coli): > 10 µM
MIC (Cryptococcus neoformans): 10 µM (≈ 3.84 µg/mL)

Reference: ChEMBL document CHEMBL4513149, “CO-ADD screening of MMV (CH) - MMV compounds” (2021)
